US7598234B2, “Steroid derived antibiotics” (Brigham Young University, priority 1998, dated 2009)
Converted amounts (≈) assume the structure as drawn.

Legend:
E. coli (ATCC 10798) [1] = assay: MIC and MBC measurement with E. coli (ATCC 10798); assay type: cell-based, Escherichia coli; details: Table 9; Escherichia coli (ATCC 10798)
In short: (§1)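 Inocula mixed 1:1 with TSB containing graded concentrations of cholic acid derivatives, alone or with erythromycin or novobiocin added 15 min later. After static incubation for 24 h at 37 °C, turbidity read at 760 nm; non-turbid samples subcultured on TSA and CFU/mL compared with the starting inoculum.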

E. coli (ATCC 10798) [2] = assay: Sensitization to erythromycin (concentration lowering the MIC of erythromycin), E. coli (ATCC 10798); assay type: cell-based, Escherichia coli; details: Table 9; Escherichia coli (ATCC 10798)
E. coli (ATCC 10798) [3] = assay: Sensitization to novobiocin (concentration lowering the MIC of novobiocin), E. coli (ATCC 10798); assay type: cell-based, Escherichia coli; details: Table 9; Escherichia coli (ATCC 10798)
[4] = test system: Pseudomonas aeruginosa (ATCC 27853); assay: MIC and MBC measurement with Pseudomonas aeruginosa (ATCC 27853); assay type: cell-based; details: Table 10; Pseudomonas aeruginosa ATCC 27853
In short: as §1

[5] = test system: Pseudomonas aeruginosa (ATCC 27853); assay: Sensitization to novobiocin, Pseudomonas aeruginosa (ATCC 27853); assay type: cell-based; details: Table 12, Pseudomonas aeruginosa ATCC 27853; for FIC: novobiocin (by order); for concentration required to inhibit bacterial growth with antibiotic: novobiocin (by order) at 0.5, 1.0 or 3.0 μg/mL
In short: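 Tube checkerboard in TSB: cholic acid derivatives added, then erythromycin or novobiocin 15 min later, antibiotics at 0.5, 1.0 or 3.0 μg/mL; stationary 37 °C, 24 h. Turbidity read at 760 nm; clear samples subcultured on TSA for CFU counts versus inoculum; FIC derived for synergy.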

[6] = test system: Salmonella typhimurium ATCC 14028; assay: MIC and MBC measurement with Salmonella typhimurium ATCC 14028; assay type: cell-based; details: Table 10
In short: as §1

[7] = test system: Enterococcus faecalis ATCC 29212; assay: MIC and MBC measurement with Enterococcus faecalis ATCC 29212; assay type: cell-based; details: Table 10
Text: General: Microorganisms. Reference strains were purchased from the American Type Culture Collection (Rockville, Md.) or Bactrol disks from Difeo Laboratories (Detroit, Mich.). The following specific ATCC strains were used: 10798 Escherichia coli, 25922 Escherichia coli, 13883 Klebsiella pneumoniae, 27853 Pseudomonas aeruginosa, 14028 Salmonella typhimurium, 29212 Enterococcus faecalis, 25923 Staphylococcus aureus, 19615 Streptococcus pyogenes, and 90028 Candida albicans. Bacterial strains were maintained on Mueller-Hinton agar plates, and Candida albicans was maintained on Sabouraud Dextrose agar plates.
Tryptic soy broth (TSB) was made by dissolving 27.5 grams of tryptic soy broth without dextrose (DIFCO Laboratories) in 1 liter of deionized water and sterilizing at 121° C. for 15 minutes. Solid agar (TSA) plates were made by dissolving 6.4 grams of tryptic soy broth and 12 grams of agar (purified grade, Fischer Scientific) in 800 mL of deionized water and sterilizing at 121° C. for 20 minutes. Aliquots (20 mL) of the homogeneous solution were then poured in sterile plastic petri dishes (100×15 mm, Fisher Scientific). Solutions of compounds were made by dissolving the HCl salt of the respective compound into an appropriate amount of deionized and sterilized water followed by microfiltration.
(§2) Aliquots of 1 mL of the suspension were added to test tubes containing 1 mL TSB and incrementally varied concentrations of cholic acid derivatives and/or erythromycin or novobiocin. In the sensitization experiments, erythromycin or novobiocin were added 15 minutes later than the cholic acid derivatives. The samples were subjected to stationary incubation at 37° C. for 24 hours. Sample turbidity was determined by measuring absorption at 760 nm (HP 8453 UV-Visible Chemstation, Hewlett Packard). Additionally, an alliquot from each of the samples showing no measurable turbidity was subcultured on TSA plates (alliquots were diluted to provide fewer than 300 CFU). Colonies that grew on the subculture after overnight incubation were counted and the number of CFU/mL in the samples were calculated. The calculated values were compared to the number of CFU/mL in the original inoculum.

[8] = test system: Staphylococcus aureus ATCC 25923; assay: MIC and MBC measurement with Staphylococcus aureus ATCC 25923; assay type: cell-based; details: Table 10; Staphylococcus aureus ATCC 25923
In short: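 Bacteria incubated statically 24 h at 37 °C in TSB with graded compound concentrations (erythromycin or novobiocin added 15 min later in sensitization runs). MIC from turbidity at 760 nm; MBC by subculturing clear samples on TSA and comparing CFU/mL to inoculum.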

[9] = test system: Klebsiella pneumonia ATCC 13883; assay: Growth inhibition and FIC with novobiocin, Klebsiella pneumoniae ATCC 13883; assay type: cell-based; details: Table 12, novobiocin (by order) at 0.5, 1.0 or 3.0 μg/mL
Procedure: (§3) Alternatively, “fractional inhibitory concentration (FIC)” is also useful for determination of synergy between the compounds of the invention, or the compounds in combination with known antibiotics. FICs can be performed by checkerboard titrations of compounds in one dimension of a microtiter plate, and of antibiotics in the other dimension, for example. The FIC is calculated by looking at the impact of one antibiotic on the MIC of the other and vice versa. […] Preferably, an FIC of less than 0.5 is obtained for synergism. As used herein, FIC can be determined as follows:
as §2
(§4) To measure permeabilization, the FIC values for compounds 1, 2, 5, 106, 10, 112, 133, and 134 with erythromycin, novobiocin, and rifampicin were determined. Concentrations of 0.5, 1.0 or 3.0 μg/mL of these antibiotics were used, and the concentrations of the cholic acid derivatives required to inhibit bacterial growth of Gram-negative strains were determined.

[10] = test system: Salmonella typhimurium ATCC 14028; assay: Growth inhibition and FIC with novobiocin, Salmonella typhimurium ATCC 14028; assay type: cell-based; details: for FIC: Table 12, novobiocin (by order); for concentration required to inhibit bacterial growth with antibiotic: Table 12, novobiocin (by order) at 0.5, 1.0 or 3.0 μg/mL
Procedure: as §3, §2, §4

[11] = test system: Escherichia coli ATCC 25922; assay: Growth inhibition and FIC with rifampicin, Escherichia coli ATCC 25922; assay type: cell-based; details: for FIC: Table 13, rifampicin (by order); for concentration required to inhibit bacterial growth with antibiotic: Table 13, rifampicin (by order) at 0.5, 1.0 or 3.0 μg/mL
Procedure: as §3, §2, §4

[12] = test system: Klebsiella pneumonia ATCC 13883; assay: Growth inhibition and FIC with rifampicin, Klebsiella pneumoniae ATCC 13883; assay type: cell-based; details: for FIC: Table 13, rifampicin (by order); for concentration required to inhibit bacterial growth with antibiotic: Table 13, rifampicin (by order) at 0.5, 1.0 or 3.0 μg/mL
Procedure: as §3, §2, §4

[13] = test system: Pseudomonas aeruginosa ATCC 27853; assay: Growth inhibition and FIC with rifampicin, Pseudomonas aeruginosa ATCC 27853; assay type: cell-based; details: Table 13, Pseudomonas aeruginosa ATCC 27853^b; for FIC: rifampicin (by order); for concentration required to inhibit bacterial growth with antibiotic: rifampicin (by order) at 0.5, 1.0 or 3.0 μg/mL
Procedure: as §3, §2, §4

[14] = test system: Salmonella typhimurium ATCC 14028; assay: Growth inhibition and FIC with rifampicin, Salmonella typhimurium ATCC 14028; assay type: cell-based; details: Table 13, Salmonella typhimurium ATCC 14028^b; for FIC: rifampicin (by order); for concentration required to inhibit bacterial growth with antibiotic: rifampicin (by order) at 0.5, 1.0 or 3.0 μg/mL
Procedure: as §3, §2, §4

SMILES | MBC (E. coli (ATCC 10798) [1]) [µg/mL] | MIC (E. coli (ATCC 10798) [1]) [µg/mL] | (a) Concentration required to lower the MIC of erythromycin from 70 to 1 μg/mL (E. coli (ATCC 10798) [2]) [µg/mL] | (b) MBC with 1 μg/mL erythromycin (E. coli (ATCC 10798) [2]) [µg/mL] | FIC values with erythromycin (E. coli (ATCC 10798) [2]) | (d) Concentration required to lower the MIC of novobiocin from >500 to 1 μg/mL (E. coli (ATCC 10798) [3]) [µg/mL] | FIC values with novobiocin (E. coli (ATCC 10798) [3]) | MBC [4] [µg/mL] | MIC [4] [µg/mL] | FIC [5] | concentration required to inhibit bacterial growth with antibiotic [5] [µg/mL] | MBC [6] [µg/mL] | MIC [6] [µg/mL] | MBC [7] [µg/mL] | MIC [7] [µg/mL] | MBC [8] [µg/mL] | MIC [8] [µg/mL] | concentration required to inhibit bacterial growth with antibiotic [9] [µg/mL] | FIC [10] | concentration required to inhibit bacterial growth with antibiotic [10] [µg/mL] | further results
C[C@]12CC[C@@H](OCCCN)C[C@H]1C[C@@H](OCCCN)[C@@H]1[C@@H]2C[C@H](OCCCN)[C@]2(C)[C@@H](O)CC[C@@H]12 [Compound 106] | >200 | 140 (≈ 282 µM) | 30 | 160 | 0.23 | 50 | 0.36 | 97 (≈ 196 µM) | 85 (≈ 171 µM) | 0.36 | 30 | >100 | >100 | >100 | 12 (≈ 24.2 µM) | 54 (≈ 109 µM) | 8.6 (≈ 17.3 µM) | 8.9 | 0.094 | 8.4 | FIC [11]: 0.12; concentration required to inhibit bacterial growth with antibiotic [11]: 4.2 µg/mL; FIC [12]: 0.044; concentration required to inhibit bacterial growth with antibiotic [12]: 1.8 µg/mL; FIC [13]: 0.17; concentration required to inhibit bacterial growth with antibiotic [13]: 11 µg/mL; FIC [14]: 0.064; concentration required to inhibit bacterial growth with antibiotic [14]: 1.4 µg/mL
CCCOCCC[C@@H](C)[C@H]1CC[C@H]2[C@@H]3[C@H](OCCCN)C[C@@H]4C[C@H](OCCCN)CC[C@]4(C)[C@H]3C[C@H](OCCCN)[C@]12C [Compound 112] | 17 (≈ 28 µM) | 12 (≈ 19.7 µM) | 0.4 | 4.0 | 0.048 | 0.8 | 0.085 | 6.4 (≈ 10.5 µM) | 4.6 (≈ 7.57 µM) | 0.17 | 0.72 | 90 (≈ 148 µM) | 86 (≈ 141 µM) | 4.7 (≈ 7.73 µM) | 3.1 (≈ 5.1 µM) | 4.2 (≈ 6.91 µM) | 0.55 (≈ 0.905 µM) | 0.19 | 0.015 | 0.39 | FIC [11]: 0.19; concentration required to inhibit bacterial growth with antibiotic [11]: 0.81 µg/mL; FIC [12]: 0.031; concentration required to inhibit bacterial growth with antibiotic [12]: 0.11 µg/mL; FIC [13]: 0.15; concentration required to inhibit bacterial growth with antibiotic [13]: 0.50 µg/mL; FIC [14]: 0.051; concentration required to inhibit bacterial growth with antibiotic [14]: 0.10 µg/mL
